Results from publication PMC10426190 (Breast Cancer Research : BCR, 2023).

System: E2-induced (ER target) genes in MCF7
Test: Gene expression analysis by RNA-sequencing in MCF7 with E2 stimulation
Format: cell-based, human
Details: MCF7; 1 nM E2 ± 1 μM compound, 24 h
Description: MCF7 were cultured in hormone deprivation media (with 10% charcoal-stripped FBS) for at least 3 days before assay. Trypsinized cells were seeded in a 12-well plate, stimulated with 1 nM β-estradiol (E2), and treated with/without 1 μM compounds for 24 h. Total RNA was extracted using the TRIzol reagent according to the manufacturer’s protocol. RNA purity and quantification were evaluated using the NanoDrop 2000 spectrophotometer (Thermo Scientific, USA). RNA integrity was assessed using the Agilent 2100 Bioanalyzer (Agilent Technologies, Santa Clara, CA, USA). Then the libraries were constructed using TruSeq Stranded mRNA LT Sample Prep Kit (Illumina, San Diego, CA, USA) according to the manufacturer’s instructions. The transcriptome sequencing and analysis were conducted by OE Biotech Co., Ltd. (Shanghai, China). The libraries were sequenced on an Illumina HiSeq X Ten platform and 150 bp paired-end reads were generated. […] Raw data (raw reads) of FASTq format were firstly processed using Trimmomatic and the low-quality reads were removed to obtain the clean reads. […] The clean reads were mapped to the human genome (GRCh38) using HISAT2 [27]. FPKM [28] of each gene was calculated using Cufflinks, and the read counts of each gene were obtained by HTSeqcount. Differential expression analysis was performed using the DESeq (2012) R package.
MCF7 with hormone-deprived pre-treatment were administrated ER ligands or not present with 1 nM E2 stimulation for 24 h incubation in a 12-well plate. Total mRNA was isolated from treated cells and sequenced on an Illumina HiSeq X Ten platform. FPKM of each gene was calculated using Cufflinks and Differential expression genes analysis by using the DESeq (2012) R package. […] T47D EFM-19 and HCC1500 cells were grown in RPMI media supplemented with 10% charcoal-stripped FBS for 14 days and then treated with ER antagonist (1 μM) or DMSO in the presence E2 (1nM) stimulation for 24 h before RNA isolation and gene expression analysis as described in methods. […] The uteruses were harvested 24 h after the final doses and stained by toluidine blue. Endometrial height was assessed from the basement membrane to the luminal border (scale bar in green lines: 200 μm), Arrows indicate the uterine epithelium (e).

Q: For `CC/C(=C(\c1ccc(O)cc1)c1ccc(OCCN(C)C)cc1)c1ccccc1` [4-OH-tamoxifen], which KIF18B expression is on record?
A: 3.84 FPKM

Q: What about the KIFC1 expression of the same molecule?
A: 15.12 FPKM

Q: And the KLK11 expression?
A: 4.66 FPKM

Q: And the KNL1 expression?
A: 4.05 FPKM

Q: What about the KNTC1 expression of the same molecule?
A: 6.86 FPKM

Q: And the LHX2 expression?
A: 1.62 FPKM

Q: And the LIG1 expression?
A: 23.58 FPKM

Q: And the LMNB1 expression?
A: 53.86 FPKM

Q: And the MAD2L1 expression?
A: 7.76 FPKM

Q: What about the MCM2 expression of the same molecule?
A: 31.78 FPKM

Q: And the MCM3 expression?
A: 34.54 FPKM

Q: And the MCM4 expression?
A: 49.01 FPKM

Q: What about the MCM5 expression of the same molecule?
A: 13.27 FPKM

Q: And the MCM6 expression?
A: 24.55 FPKM

Q: And the MCM7 expression?
A: 84.30 FPKM

Q: What about the MCM10 expression of the same molecule?
A: 3.64 FPKM

Q: And the MELK expression?
A: 11.34 FPKM

Q: And the MKI67 expression?
A: 21.80 FPKM

Q: What about the MYB expression of the same molecule?
A: 5.81 FPKM

Q: And the MYBL1 expression?
A: 1.32 FPKM

Q: And the MYBL2 expression?
A: 46.03 FPKM

Q: What about the NCAPG2 expression of the same molecule?
A: 19.25 FPKM

Q: And the NCAPG expression?
A: 7.03 FPKM

Q: And the NPY1R expression?
A: 8.44 FPKM

Q: And the ORC1 expression?
A: 3.13 FPKM

Q: And the ORC6 expression?
A: 7.62 FPKM

Q: And the PAQR4 expression?
A: 12.98 FPKM

Q: And the PBK expression?
A: 16.47 FPKM

Q: And the PCLAF expression?
A: 33.01 FPKM

Q: What about the PCNA expression of the same molecule?
A: 59.31 FPKM

Q: And the PDZK1 expression?
A: 3.59 FPKM

Q: And the PGR expression?
A: 1.93 FPKM

Q: And the PKIB expression?
A: 26.05 FPKM

Q: And the PKMYT1 expression?
A: 12.25 FPKM

Q: And the POLA1 expression?
A: 3.09 FPKM

Q: What about the POLA2 expression of the same molecule?
A: 5.57 FPKM

Q: What about the POLD1 expression of the same molecule?
A: 11.86 FPKM

Q: What about the POLE2 expression of the same molecule?
A: 2.61 FPKM

Q: What about the POLE expression of the same molecule?
A: 12.83 FPKM

Q: And the POLQ expression?
A: 2.74 FPKM

Q: And the PRIM1 expression?
A: 10.94 FPKM

Q: And the PRSS23 expression?
A: 68.31 FPKM

Q: What about the RAB31 expression of the same molecule?
A: 11.89 FPKM

Q: What about the RAD51AP1 expression of the same molecule?
A: 5.44 FPKM

Q: What about the RAD51 expression of the same molecule?
A: 4.02 FPKM

Q: What about the RAD54L expression of the same molecule?
A: 4.39 FPKM

Q: And the RAMP3 expression?
A: 3.44 FPKM

Q: What about the RAPGEFL1 expression of the same molecule?
A: 6.63 FPKM

Q: And the RBL1 expression?
A: 2.35 FPKM

Q: What about the RECQL4 expression of the same molecule?
A: 13.74 FPKM

Q: What about the RERG expression of the same molecule?
A: 3.48 FPKM

Q: What about the RET expression of the same molecule?
A: 4.49 FPKM

Q: What about the RFC2 expression of the same molecule?
A: 18.64 FPKM

Q: And the RFC3 expression?
A: 4.62 FPKM

Q: And the RFC4 expression?
A: 14.31 FPKM

Q: And the RNASEH2A expression?
A: 30.81 FPKM

Q: And the RRM1 expression?
A: 20.41 FPKM

Q: What about the RRM2 expression of the same molecule?
A: 33.29 FPKM

Q: And the RUBCNL expression?
A: 1.01 FPKM

Q: And the SDK2 expression?
A: 0.95 FPKM

Q: What about the SFXN2 expression of the same molecule?
A: 8.23 FPKM

Q: What about the SHCBP1 expression of the same molecule?
A: 3.43 FPKM

Q: What about the SKA3 expression of the same molecule?
A: 5.48 FPKM

Q: What about the SLC6A14 expression of the same molecule?
A: 24.37 FPKM

Q: And the SMC2 expression?
A: 7.20 FPKM

Q: And the SPC24 expression?
A: 7.06 FPKM

Q: What about the SPC25 expression of the same molecule?
A: 7.65 FPKM

Q: What about the STC2 expression of the same molecule?
A: 84.89 FPKM

Q: And the TACC3 expression?
A: 21.35 FPKM

Q: And the TCF19 expression?
A: 8.96 FPKM

Q: And the TCOF1 expression?
A: 10.86 FPKM

Q: And the TGM2 expression?
A: 3.69 FPKM

Q: What about the TICRR expression of the same molecule?
A: 4.37 FPKM

Q: What about the TK1 expression of the same molecule?
A: 57.95 FPKM

Q: And the TMEM26 expression?
A: 2.14 FPKM

Q: And the TMEM164 expression?
A: 10.65 FPKM

Q: And the TONSL expression?
A: 9.87 FPKM

Q: What about the TOP2A expression of the same molecule?
A: 30.91 FPKM

Q: And the TP73 expression?
A: 1.32 FPKM

Q: What about the TRIP13 expression of the same molecule?
A: 8.37 FPKM

Q: And the TUBA1B expression?
A: 555.45 FPKM

Q: And the TUBB expression?
A: 291.22 FPKM

Q: And the TYMS expression?
A: 31.45 FPKM

Q: And the UBE2C expression?
A: 31.96 FPKM

Q: And the UBE2T expression?
A: 41.94 FPKM

Q: What about the UHRF1 expression of the same molecule?
A: 9.20 FPKM

Q: And the UNG expression?
A: 32.49 FPKM

Q: And the WDHD1 expression?
A: 4.95 FPKM

Q: What about the WDR62 expression of the same molecule?
A: 5.88 FPKM

Q: What about the WDR76 expression of the same molecule?
A: 1.87 FPKM

Q: What about the XRCC2 expression of the same molecule?
A: 3.37 FPKM

Q: What about the XRCC3 expression of the same molecule?
A: 8.89 FPKM

Q: And the ZGRF1 expression?
A: 1.82 FPKM

Q: And the ZNF367 expression?
A: 5.84 FPKM
